Data published in patent US20020068367A1, “Linker and method for solid phase combinatorial synthesis” (priority 2000, published 2002).
Each block holds one compound with its values, some of them ahead of it.

Legend:
fluorescein-streptavidin = target: T1, fluorescein-streptavidin (Streptomyces avidinii, UniProt P22629); assay: Standard protein-binding assay: fluorescein-streptavidin binding to linker on streptavidin-coated 96-well plates; settings: for Fluorescence emission detected (qualitative): linker and fluorescein-labeled protein present
T1 construct: purchased Calbiochem-Novabiochem Corp., La Jolla, Calif; 189734
Description: (§1) Referring to the drawings, and particularly to FIG. 1, generic reactions illustrating two variations of the screening system of the present invention are shown. FIGS. 1a-1d illustrate the generic System 1 reaction wherein a compound comprised of a tether connecting biotin with a chemical compound containing a nitrophenyl group is applied to a streptavidin coated solid phase. The amount of fluorescein-protein complex (c), where the exemplary protein is fluorescein-anti-DNP antibody, bound to the biotin-tether-nitrophenyl complex is characterized by detecting the magnitude of fluorescence emission in each individual well at the completion of the reaction. Similarly, FIG. 1e-1h illustrates the generic System 2 reaction wherein a tether connects 2 biotin groups together and streptavidin is coated on the solid phase. As in the System 1 reaction, the amount of fluorescein-protein complex (g), where the exemplary protein is fluorescein-streptavidin, bound to the biotin-tether-biotin complex is characterized through the detection of fluorescence emissions in each individual well at the completion of the reaction.
In the quantification of the interaction between fluoresceinated-proteins and linkers is characterized by detecting the magnitude of fluorescence emissions in each individual well at the completion of standard protein-binding assay procedures.
(§2) A standard protein-binding assay comprises a multi-step process in which strepeavidin pre-treated 96-well plates are exposed to a solution containing linker followed by exposure to a solution containing fluorescein-labeled protein. The 96-well plates are coated with a commercially available streptavidin solution (cat #BPS00100; Xenopore Corp., Hawthorne, N.J.) and then pre-incubated with 300 μl PBS buffer for 10 minutes at room temperature. To complete the pre-incubation process, the PBS buffer is discarded and the plates are further washed five times with water. Once the plate is sufficiently washed, add to the wells 100 μl of pre-mixed binding buffer containing the desired linker, the preparation of which is as described above. After addition of the linker solution, the plate is incubated at 37° C. for one hour. Upon completion of incubation, the linker solution is discarded and the plate is washed with five changes of water. For the fifth step of the assay process, 100 μl of a premixed reaction solution containing 1 M Tris, 0.5 M NaCl and the fluorescein-labeled proteins are added to selected wells of the plate with bound linker. The fluorescein conjugated proteins, anti-dinitrophenyl antibody (rabbit IgG fraction, cat #A-6423) (anti-DNP) and streptavidin (cat #189734) are commercially available from Molecular Probes, Inc., Eugene, Oreg. and Calbiochem Inc., San Diego, Calif. Upon addition of the protein solutions, the plate is further incubated at 37° C. for one hour. Following the incubation period, the reacting solution in each well is discarded and the wells are washed with five changes of 1 M Tris or 30 changes of water. After this final washing step, 250 μl of elution buffer containing 0.5 mM NaOH, methanol and 20 mM EDTA is added to each well and the plate is read using a Spectra MAX Gemini fluorescein plate reader (Molecular Devices Corp., Sunnyvale, Calif.).
Using the standard protein-binding assay described above, linkers 1-7 are evaluated for their ability to bind fluorescein-streptavidin or fluorescein-anti-DNP. The detection of fluorescence emission beyond that of the control would indicate that the fluorescein labeled protein has bound to the corresponding linker. Lack of fluorescence emission would indicate that either the linker or the fluorescein-bound proteins are absent, or that an improper linker was used. This may be interpreted as meaning that the protein of interest, in this exemplary example streptavidin or anti-DNP, “recognizes” the particular library compound being used in the experiment. […]

[1] = system: fluorescein-anti-DNP antibody (rabbit IgG fraction); assay: Standard protein-binding assay: fluorescein-anti-DNP binding to linker on streptavidin-coated 96-well plates
Description: as §1, §2
Using the standard protein-binding assay described above, linkers 1-7 are evaluated for their ability to bind fluorescein-streptavidin or fluorescein-anti-DNP. The detection of fluorescence emission beyond that of the control would indicate that the fluorescein labeled protein has bound to the corresponding linker. Lack of fluorescence emission would indicate that either the linker or the fluorescein-bound proteins are absent, or that an improper linker was used. This may be interpreted as meaning that the protein of interest, in this exemplary example streptavidin or anti-DNP, “recognizes” the particular library compound being used in the experiment. It is this “recognition” that constitutes the use of these plate libraries as “affinity probes”. While preliminary test results are reported for all of the tested linkers, particular emphasis will be on the data derived from testing of linkers 3 and 5. […]

SMILES: O=C(CCCCC1SCC2NC(=O)NC21)NCCCOCCOCCOCCCNC(=O)CCCCC1SCC2NC(=O)NC21 (stereo not shown) [Linker 1]
Fluorescence emission detected (qualitative) (fluorescein-streptavidin): No fluorescence emission was detected

SMILES: O=C(CCCCCNC(=O)CCCCC1SCC2NC(=O)NC21)NCCCCCNC(=O)CCCCCNC(=O)CCCCC1SCC2NC(=O)NC21 (stereo not shown) [Linker 2]
Fluorescence emission (fluorescein-streptavidin; Linker 2 62.5 nmol, no streptavidin-fluorescein (control)): 583
Fluorescence emission (fluorescein-streptavidin; Linker 2 62.5 nmol, streptavidin-fluorescein 73.5 pmol): 652
Fluorescence emission detected (qualitative) (fluorescein-streptavidin): Fluorescence emissions were detected

SMILES: O=C(CCCCC1SCC2NC(=O)NC21)NCCCCCC(=O)NCCCOCCOCCOCCCNC(=O)COCC(=O)NCCCOCCOCCOCCCNC(=O)CCCCC1SCC2NC(=O)NC21 (stereo not shown) [Linker 4]
Fluorescence emission (fluorescein-streptavidin; Linker 4 5 nmol, no streptavidin-fluorescein (control)): 122
Fluorescence emission (fluorescein-streptavidin; Linker 4 5 nmol, streptavidin-fluorescein 100 pmol): 218
Fluorescence emission detected (qualitative) (fluorescein-streptavidin): Fluorescence emissions were detected

Increase in fluorescence emission ([1]; 100-fold increase in linker 5 concentration): 2.5 fold
Fluorescence emission ([1]; [5] 50.0 nmol, fluorescein-anti-DNP 266 pmol): 197.62
Fluorescence emission ([1]; [5] 100.0 nmol, fluorescein-anti-DNP 266 pmol): 176.22
Fluorescence emission ([1]; [5] 200.0 nmol, fluorescein-anti-DNP 266 pmol): 172.66
Fluorescence emission ([1]; [5] 300.0 nmol, fluorescein-anti-DNP 266 pmol): 180.98
Fluorescence emission ([1]; [5] 400.0 nmol, fluorescein-anti-DNP 266 pmol): 225.98
Fluorescence emission ([1]; [5] 500.0 nmol, fluorescein-anti-DNP 266 pmol): 224.27
Fluorescence emission ([1]; [5] 1000.0 nmol, fluorescein-anti-DNP 266 pmol): 211.7
Fluorescence emission ([1]; [5] 2000.0 nmol, fluorescein-anti-DNP 266 pmol): 351.7
Fluorescence emission ([1]; [5] 3000.0 nmol, fluorescein-anti-DNP 266 pmol): 369.58
Fluorescence emission ([1]; [5] 4000.0 nmol, fluorescein-anti-DNP 266 pmol): 516.83
Fluorescence emission ([1]; [5] 5000.0 nmol, fluorescein-anti-DNP 266 pmol): 543.9
Fluorescence emission ([1]; linker 5 50 nmol, [α-DNP] 0 pmol (linker only)): 76.392
Fluorescence emission ([1]; linker 5 50 nmol, [α-DNP] 2.6 pmol): 101.45
Fluorescence emission ([1]; linker 5 50 nmol, [α-DNP] 5.3 pmol): 109.82
Fluorescence emission ([1]; linker 5 50 nmol, [α-DNP] 10.0 pmol): 129.19
Fluorescence emission ([1]; linker 5 50 nmol, [α-DNP] 16.0 pmol): 137.9
Fluorescence emission ([1]; linker 5 50 nmol, [α-DNP] 21.0 pmol): 160.48
Fluorescence emission ([1]; linker 5 50 nmol, [α-DNP] 27.0 pmol): 204.54
Fluorescence emission ([1]; linker 5 50 nmol, [α-DNP] 53.0 pmol): 306.3
Fluorescence emission ([1]; linker 5 50 nmol, [α-DNP] 106.0 pmol): 473.57
Fluorescence emission ([1]; linker 5 50 nmol, [α-DNP] 159.0 pmol): 615.29
Fluorescence emission ([1]; linker 5 50 nmol, [α-DNP] 212.0 pmol): 599.48
Fluorescence emission ([1]; linker 5 50 nmol, [α-DNP] 266.0 pmol): 561.46
Increase in fluorescence emission ([1]; linker 5, 10-fold increase in fluorescein-anti-DNP concentration (5.3 to 53 pmol)): approximately 3 fold
SMILES: O=C(CCCCCNC(=O)CCCCC1SCC2NC(=O)NC21)NCCCCCNC(=O)CCCCCNc1ccc([N+](=O)[O-])cc1[N+](=O)[O-] (stereo not shown) [Linker 5]
Effect on binding capacity of fluorescein-anti-DNP ([1]; generic System 1): significantly enhances the binding capacity

SMILES: O=C(CCCCCNc1ccc([N+](=O)[O-])cc1[N+](=O)[O-])NCCCOCCOCCOCCCNC(=O)COCC(=O)NCCCOCCOCCOCCCNC(=O)CCCCC1SCC2NC(=O)NC21 (stereo not shown) [Linker 7]
Fluorescence emission (fluorescein-streptavidin; Linker 7 5 nmol, no streptavidin-fluorescein (control)): 112
Fluorescence emission (fluorescein-streptavidin; Linker 7 5 nmol, streptavidin-fluorescein 266 pmol): 208
Fluorescence emission detected (qualitative) (fluorescein-streptavidin): Fluorescence emissions were detected

SMILES: NCCCCCNC(=O)CCCC[C@@H]1SC[C@@H]2NC(=O)N[C@@H]21 [Linker B-1596, reference compound]
Fluorescence emission (fluorescein-streptavidin; pre-linker B-1596 50 nmol replacing linker 3, streptavidin-fluorescein 100 pmol): remained at a level similar to reactions where no linker was used
